Patent publication US20080089927A1, “Methods for Coacervation Induced Liposomal Encapsulation and Formulations Thereof” (priority 2006, published 2008)
Where two headings read alike, the source gives them in different places.

Experiments:
[1] = Ternary phase diagram amikacin sulfate-water-ethanol; assay type: physicochemical; details: 3 parts amikacin sulfate 70 mg/mL in water mixed with 2 parts ethanol
From the text: FIG. 3 depicts a ternary phase diagram of amikacin sulfate—water—ethanol system.
FIG. 3 depicts a ternary phase diagram for an amikacin sulfate—water—ethanol system. The two-phase area under the binodial curve is a zone where the system separates into two phases, a coacervate phase and an equilibrium phase. The area above the binodial curve is a zone where single liquid phase system of amikacin sulfate dissolved in water-ethanol mixture exists. When 3 parts of amikacin sulfate solution in water at 70 mg/mL (point 1) is mixed with 2 parts of ethanol, the resulting mixture has composition (point 2), which spontaneously separates into two phases: coacervate phase rich in amikacin (point C) and equilibrium phase pour in amikacin (point E). Coacervate phase comprises only about 4.5% of total volume and originally forms as small droplets suspended in equilibrium phase. If lipids are present in surrounding solution when coacervates are just formed, they can spontaneously form bilayers around those droplets. During manufacturing it is often desired to limit exposure of the product to high ethanol concentration. For examples, another 3 parts of saline or buffer can be added consequently to the mixture, which shifts composition to the single-phase zone (point 3). […]

[2] = Miscibility of amikacin sulfate with ethanol/water; assay type: physicochemical; details: ethanol/water mixture, aqueous with cosolvent or surfactant or cyclodextrin
From the text: Right after the infusion step at flow rates 300/500, ethanol concentration in the mixture reaches 34%.
One possible solution to this problem is to add more water to the vessel with the lipid/amikacin mixture, thus reducing both ethanol and amikacin concentration.

Which “coacervate phase, share of total volume” value [1] does the source give for `NCC[C@H](O)C(=O)N[C@@H]1C[C@H](N)[C@@H](O[C@H]2O[C@H](CN)[C@@H](O)[C@H](O)[C@H]2O)[C@H](O)[C@H]1O[C@H]1O[C@H](CO)[C@@H](O)[C@H](N)[C@H]1O.O=S(=O)(O)O.O=S(=O)(O)O` [amikacin sulfate] here?
The value was “about 4.5%”.

What does the source list for `NCC[C@H](O)C(=O)N[C@@H]1C[C@H](N)[C@@H](O[C@H]2O[C@H](CN)[C@@H](O)[C@H](O)[C@H]2O)[C@H](O)[C@H]1O[C@H]1O[C@H](CO)[C@@H](O)[C@H](N)[C@H]1O` [amikacin]?
solubility ([2]; 27% ethanol, depending on temperature, read-out: amikacin soluble concentration): ≥ 15 mg/mL; solubility ([2]; 34% ethanol, read-out: solubility limit): < 15 mg/mL
